These results are taken from ChEMBL document CHEMBL5126557, “Design, synthesis, and bio-evaluation of novel triterpenoid derivatives as anti-HIV-1 compounds” (Bioorg Med Chem Lett, 2022).

Each structure is given as a SMILES string.

The nature of series [1]: Selectivity index, ratio of CC50 for human TZM-bl cells to IC50 for IC50 for antiviral activity against HIV-1 89.6 infected in human TZM-bl cells. It is filed as toxicity, cell-based. The conditions noted are these: read-out: Ratio CC50/IC50.
Series [2] concerns Human immunodeficiency virus 1. Kind of series: Antiviral activity against HIV-1 89.6 infected in human TZM-bl cells assessed as reduction in viral replication. The series is classed as functional, organism-based. The settings on record: Human immunodeficiency virus 1, 89.6, TZM-bl.
The subject of series [3] is Human immunodeficiency virus 1. Kind of series: Antiviral activity against HIV-1 NL4-3(X4) infected in human TZM-bl cells assessed as reduction in viral replication. The series is classed as functional, organism-based. The settings on record: Human immunodeficiency virus 1, NL4-3(X4).
Series [4] is described as follows: Cytotoxicity against human TZM-bl cells assessed as reduction in cell viability by CellTitre-Glo assay. The series is classed as toxicity, cell-based.
Series [5] relates to Human immunodeficiency virus 1. Kind of series: Antiviral activity against HIV-1 YU2 […] infected in human TZM-bl cells assessed as reduction in viral replication. It is filed as functional, organism-based. The settings on record: Human immunodeficiency virus 1, YU2[…].
Series [6] concerns Human immunodeficiency virus 1. The series can be described thus: Synergistic antiviral activity against HIV-1 89.6 infected in human TZM-bl cells assessed as antibody dose reduction index at 450:1 compound and b12 antibody ratio. It is filed as functional.
Series [7] concerns Human immunodeficiency virus 1. Kind of series: Synergistic antiviral activity against HIV-1 89.6 infected in human TZM-bl cells assessed as combination index at 45:1 compound and 447-52D antibody ratio. It is filed as functional.
Series [8] has as its system Human immunodeficiency virus 1. Kind of series: Synergistic antiviral activity against HIV-1 89.6 infected in human TZM-bl cells assessed as compound dose reduction index at 45:1 compound and KD-247 antibody ratio. It is filed as functional.
In series [9] the test system is Human immunodeficiency virus 1. Kind of series: Synergistic antiviral activity against HIV-1 89.6 infected in human TZM-bl cells assessed as compound dose reduction index at 45:1 compound and 2G12 antibody ratio. It is filed as functional.
For series [10], the system named is Human immunodeficiency virus 1. The series can be described thus: Synergistic antiviral activity against HIV-1 89.6 infected in human TZM-bl cells assessed as combination index at 45:1 compound and 2G12 antibody ratio. The series is classed as functional.
Series [11] concerns Human immunodeficiency virus 1. Kind of series: Synergistic antiviral activity against HIV-1 89.6 infected in human TZM-bl cells assessed as antibody dose reduction index at 45:1 compound and 2G12 antibody ratio. It is filed as functional.
Series [12] concerns Human immunodeficiency virus 1. The series can be described thus: Synergistic antiviral activity against HIV-1 89.6 infected in human TZM-bl cells assessed as antibody dose reduction index at 45:1 compound and 447-52D antibody ratio. It is filed as functional.
Series [13] deals with Human immunodeficiency virus 1. The series can be described thus: Synergistic antiviral activity against HIV-1 89.6 infected in human TZM-bl cells assessed as combination index at 45:1 compound and 2F5 antibody ratio. The series is classed as functional.
Series [14] relates to Human immunodeficiency virus 1. Kind of series: Synergistic antiviral activity against HIV-1 89.6 infected in human TZM-bl cells assessed as compound dose reduction index at 45:1 compound and 447-52D antibody ratio. It is filed as functional.
Series [15] has as its system Human immunodeficiency virus 1. The series can be described thus: Synergistic antiviral activity against HIV-1 89.6 infected in human TZM-bl cells assessed as compound dose reduction index at 450:1 compound and b12 antibody ratio. The series is classed as functional.
Series [16] concerns Human immunodeficiency virus 1. The series can be described thus: Synergistic antiviral activity against HIV-1 89.6 infected in human TZM-bl cells assessed as compound dose reduction index at 45:1 compound and 2F5 antibody ratio. The series is classed as functional.
Series [17] relates to Human immunodeficiency virus 1. Kind of series: Synergistic antiviral activity against HIV-1 89.6 infected in human TZM-bl cells assessed as combination index at 45:1 compound and KD-247 antibody ratio. It is filed as functional.
Series [18] concerns Human immunodeficiency virus 1. Kind of series: Synergistic antiviral activity against HIV-1 89.6 infected in human TZM-bl cells assessed as compound dose reduction index at 45:1 compound and 4E10 antibody ratio. The series is classed as functional.
In series [19] the test system is Human immunodeficiency virus 1. The series can be described thus: Synergistic antiviral activity against HIV-1 89.6 infected in human TZM-bl cells assessed as antibody dose reduction index at 45:1 compound and 4E10 antibody ratio. The series is classed as functional.
Series [20] deals with Human immunodeficiency virus 1. The series can be described thus: Synergistic antiviral activity against HIV-1 89.6 infected in human TZM-bl cells assessed as antibody dose reduction index at 45:1 compound and 2F5 antibody ratio. The series is classed as functional.
In series [21] the test system is Human immunodeficiency virus 1. Kind of series: Synergistic antiviral activity against HIV-1 89.6 infected in human TZM-bl cells assessed as combination index at 45:1 compound and 4E10 antibody ratio. The series is classed as functional.
Series [22] relates to Human immunodeficiency virus 1. Kind of series: Synergistic antiviral activity against HIV-1 89.6 infected in human TZM-bl cells assessed as antibody dose reduction index at 45:1 compound and KD-247 antibody ratio. It is filed as functional.
In series [23] the test system is Human immunodeficiency virus 1. Kind of series: Synergistic antiviral activity against HIV-1 89.6 infected in human TZM-bl cells assessed as combination index at 450:1 compound and b12 antibody ratio. It is filed as functional.

Consider `C=C(C)[C@@H]1CC[C@]2(C(=O)NCCCCCCCC(=O)N[C@@H](CC(C)C)[C@H](O)CC(=O)O)CC[C@]3(C)[C@H](CC[C@@H]4[C@@]5(C)CC[C@H](O)C(C)(C)[C@@H]5CC[C@]43C)[C@@H]12`, for which, in series [1], the selectivity ratio came out at 45. In addition, the IC50 was determined as 0.2 µM in series [2], 0.32 µM in series [3] and 5.8 µM in [5]. The CC50 in series [4] came to 8.9 µM.

In the case of `CC(C)C[C@H](NC(=O)CCCCCCCNC(=O)[C@]12CCC(C)(C)C[C@H]1C1=CC[C@@H]3[C@@]4(C)CC[C@H](O)C(C)(C)[C@@H]4CC[C@@]3(C)[C@]1(C)CC2)[C@@H](O)CC(=O)O`, the Activity_index in series [6] was 3.6; in series [8], 3.3; in series [9] it was 4.9; in series [11], 3.1; in series [12], 3.9; in [14], 3.8. Moreover, the Activity_index in series [15] is recorded as 3.2; in [16], 4.3; in series [18], 2.9; in series [19], 5.5; in series [20], 2.7; in series [22], 2.9. Besides, the CI in series [7] stood at 0.59; in [10] it was 0.59; in series [13], 0.69; in series [17], 0.75; in [21], 0.59; in series [23], 0.68. The selectivity ratio in series [1] was determined as 99. The IC50 in [2] turned out to be 0.79 µM; in series [3], 1.7 µM; in [5], 25 µM. For the same compound, in series [4], the CC50 was determined as 78 µM.

Turning to `CC(C)C[C@H](NC(=O)CCCCCCCNC(=O)[C@@]1(C)CC[C@]2(C)CC[C@]3(C)C(=CC(=O)[C@@H]4[C@@]5(C)CC[C@H](O)C(C)(C)[C@@H]5CC[C@]43C)[C@@H]2C1)[C@@H](O)CC(=O)O`, the half-inhibitory concentration (IC50) in series [2], in [3] and in series [5] was above 100 µM each time. For the same compound, in series [4], the CC50 is above 300 µM.

For `CC(C)C[C@H](NC(=O)CCCCCCCNC(=O)[C@]12CCC(C)(C)C[C@H]1[C@H]1C(=O)C[C@@H]3[C@@]4(C)CC[C@H](O)C(C)(C)[C@@H]4CC[C@@]3(C)[C@]1(C)CC2)[C@@H](O)CC(=O)O`, in [1], the selectivity ratio came to 328. Besides, the IC50 in [2] turned out to be 0.39 µM; in series [3], 0.5 µM; in [5], 16 µM. For the same compound, the CC50 in series [4] was 128 µM.

Consider `CC(C)C[C@H](NC(=O)CCCCCCCNC(=O)[C@]12CC[C@@H](C)[C@H](C)[C@H]1C1=CC[C@@H]3[C@@]4(C)CC[C@H](O)C(C)(C)[C@@H]4CC[C@@]3(C)[C@]1(C)CC2)[C@@H](O)CC(=O)O`, for which the selectivity ratio in series [1] was determined as 27. The figures for the IC50 in [2], in series [3] and in [5] were 3.5 µM, 3.7 µM and 43 µM, respectively. The CC50 in series [4] was 95 µM.

Turning to `CC(C)C[C@H](NC(=O)CCCCCCCNC(=O)[C@@]1(C)CC[C@]2(C)CC[C@]3(C)C(=CC(=O)[C@@H]4[C@@]5(C)CC[C@H](O)C(C)(C)[C@@H]5CC[C@]43C)[C@@H]2C1)[C@H](O)CC(=O)O`, the IC50 in series [2], in series [3] and in [5] was above 100 µM throughout. In addition, the CC50 in series [4] was above 300 µM.

Turning to `CC(C)C[C@H](NC(=O)CCCCCCCNC(=O)[C@]12CC[C@@H](C)[C@H](C)[C@H]1C1=CC[C@@H]3[C@@]4(C)CC[C@H](O)C(C)(C)[C@@H]4CC[C@@]3(C)[C@]1(C)CC2)[C@H](O)CC(=O)O`, the selectivity ratio in series [1] stood at 65. Besides, the concentration for half-maximal inhibition (IC50) in series [2] stood at 1.1 µM; in series [3] it was 3.9 µM; in series [5], 40 µM. Also, the CC50 in [4] turned out to be 71 µM.

On to `CC(C)C[C@H](NC(=O)CCCCCCCNC(=O)[C@]12CCC(C)(C)C[C@H]1C1=CC[C@@H]3[C@@]4(C)CC[C@H](O)C(C)(C)[C@@H]4CC[C@@]3(C)[C@]1(C)CC2)[C@H](O)CC(=O)O`, for which, in series [1], the selectivity ratio worked out at 26. The IC50 turned out to be 1 µM in series [2], 3.2 µM in series [3] and 42 µM in [5]. For the same compound, in series [4], the CC50 came to 26 µM.

Turning to `C=C(C)[C@@H]1CC[C@]2(C(=O)NCCCCCCCC(=O)N[C@@H](CC(C)C)[C@@H](O)CC(=O)O)CC[C@]3(C)[C@H](CC[C@@H]4[C@@]5(C)CC[C@H](O)C(C)(C)[C@@H]5CC[C@]43C)[C@@H]12`, in series [1], the selectivity ratio is 100. The results for the IC50 in series [2], in series [3] and in series [5] were 0.17 µM, 0.27 µM and 80 µM, respectively. For the same compound, the CC50 in [4] is 17 µM.
